Drawing on BindingDB's records for doi:10.1021/jm060595u (University of Bristol, 2006), this text covers Ki for four compounds.

For orientation: Ki means a measure of affinity in units of concentration, obtained from inhibition or displacement.

This test in a line: Displacement of [3H]Cl-DPDPE from delta receptor in guinea pig brain homogenate. Background: Displacement assays read how much labelled ligand stays bound in the presence of the test substance.
Compound `COc1ccc2c3c1O[C@H]1C(=O)CC[C@@]4(NC(=O)CCc5ccc(Cl)cc5)[C@@H](C2)N(CC2CC2)CC[C@]314` [N-cyclopropylmethyl-14beta-[3'-(4'-chlorophenyl)propanamido]-7,8-dihydronorcodeinone] gave a Ki of 5.1 nM.
Compound `O=C(CCc1ccc(Cl)cc1)N[C@@]12CCC(=O)[C@@H]3Oc4c(O)ccc5c4[C@@]31CCN(CC1CC1)[C@@H]2C5` [N-cyclopropylmethyl-14beta-[3'-(4'-chlorophenyl)propanamido]-7,8-dihydronormorphinone] gave a Ki of 0.6 nM.
Turning to `COc1ccc2c3c1O[C@H]1C(=O)CC[C@@]4(NCCCc5ccc(Cl)cc5)[C@@H](C2)N(CC2CC2)CC[C@]314` [N-cyclopropylmethyl-14beta-[3'-(4'-chlorophenyl)propylamino]-7,8-dihydronorcodeinone], the Ki was 31 nM.
Take `O=C1CC[C@@]2(NCCCc3ccc(Cl)cc3)[C@H]3Cc4ccc(O)c5c4[C@@]2(CCN3CC2CC2)[C@H]1O5` [N-cyclopropylmethyl-14beta-[3'-(4'-chlorophenyl)propylamino]-7,8-dihydronormorphinone]: the Ki came to 1.1 nM.
